Patent US20230118688A1, “1H-PYRAZOLO[4,3-d]PYRIMIDINE COMPOUNDS AS TOLL-LIKE RECEPTOR 7 (TLR7) AGONISTS” (BRISTOL-MYERS SQUIBB COMPANY, priority 2020, published 2023)

Experiments:
human TLR7 = molecular target: T1, human TLR7 (Homo sapiens, UniProt Q9NYK1); assay: Human TLR7 agonist activity reporter assay (HEK-Blue TLR7 cells, SEAP reporter); format: cell-based; conditions: 18 h treatment, average where assay repeated, Table A1, read-out: hTLR7 Agonism EC50
T1 construct: host or cells: HEK-Blue TLR7 cells (engineered human embryonic kidney cells)
T1 sequence (Q9NYK1 27-1049): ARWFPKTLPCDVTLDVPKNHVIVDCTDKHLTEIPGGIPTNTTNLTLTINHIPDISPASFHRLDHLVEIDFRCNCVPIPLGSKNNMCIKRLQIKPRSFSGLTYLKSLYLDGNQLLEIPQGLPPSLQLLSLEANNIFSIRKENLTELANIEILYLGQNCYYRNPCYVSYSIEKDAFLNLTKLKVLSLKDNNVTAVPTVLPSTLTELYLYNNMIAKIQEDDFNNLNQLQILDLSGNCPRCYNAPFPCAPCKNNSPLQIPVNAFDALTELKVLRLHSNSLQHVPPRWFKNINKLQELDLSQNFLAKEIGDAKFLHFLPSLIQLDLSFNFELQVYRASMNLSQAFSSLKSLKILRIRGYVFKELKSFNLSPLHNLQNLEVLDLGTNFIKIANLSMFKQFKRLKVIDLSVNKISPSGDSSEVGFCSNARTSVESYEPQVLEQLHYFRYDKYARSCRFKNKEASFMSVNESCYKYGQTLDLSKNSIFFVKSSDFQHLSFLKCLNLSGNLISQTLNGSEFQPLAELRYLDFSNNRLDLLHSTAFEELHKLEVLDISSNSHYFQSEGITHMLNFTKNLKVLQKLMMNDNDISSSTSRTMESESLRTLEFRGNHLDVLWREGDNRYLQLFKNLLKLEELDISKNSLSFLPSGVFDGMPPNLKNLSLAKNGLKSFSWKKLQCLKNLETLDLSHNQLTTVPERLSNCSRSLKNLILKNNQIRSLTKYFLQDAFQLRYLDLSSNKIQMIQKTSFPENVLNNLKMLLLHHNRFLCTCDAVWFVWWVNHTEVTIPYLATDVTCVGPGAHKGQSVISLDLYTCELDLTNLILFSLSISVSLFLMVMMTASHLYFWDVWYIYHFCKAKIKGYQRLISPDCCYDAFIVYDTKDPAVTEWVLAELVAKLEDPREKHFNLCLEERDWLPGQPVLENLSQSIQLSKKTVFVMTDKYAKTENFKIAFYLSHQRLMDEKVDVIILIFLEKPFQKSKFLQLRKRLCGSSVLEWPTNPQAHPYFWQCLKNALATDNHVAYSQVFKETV
Protocol: This procedure describes a method for assaying human TLR7 (hTLR7) agonist activity of the compounds disclosed in this specification.
HEK-Blue™ TLR7 cells were added to each well of a 384-well tissue-culture plate (15,000 cells per well) and incubated 16-18 h at 37° C., 5% CO2. Compounds (100 nl) were dispensed into wells containing the HEK-Blue™ TLR cells and the treated cells were incubated at 37° C., 5% CO2. After 18 h treatment ten microliters of freshly-prepared Quanti-Blue™ reagent (Invivogen) was added to each well, incubated for 30 min (37° C., 5% CO2) and SEAP levels measured using an Envision plate reader (OD=620 nm). The half maximal effective concentration values (EC50; compound concentration which induced a response halfway between the assay baseline and maximum) were calculated.

CD69 = assay: Induction of CD69 in human whole blood; format: cell-based; conditions: 17 h, CD69 surface staining, 100% set to 1 uM resiquimod, average where assay repeated, Table A1, read-out: hWB CD69 EC50
Protocol: The induction of Type I interferon (IFN) MX-1 genes and the B-cell activation marker CD69 are downstream events that occur upon activation of the TLR7 pathway. The following is a human whole blood assay that measures their induction in response to a TLR7 agonist.
Heparinized human whole blood was harvested from human subjects and treated with test TLR7 agonist compounds at 1 mM. The blood was diluted with RPMI 1640 media and Echo was used to predot 10 nL per well giving a final concentration of 1 uM (10 nL in 10 uL of blood). After mixing on a shaker for 30 sec, the plates were covered and placed in a 37° C. chamber for o/n=17 hrs. Fixing/lysis buffer was prepared (5×->1× in H2O, warm at 37° C.; Cat #BD 558049) and kept the perm buffer (on ice) for later use.
For surface markers staining (CD69): prepared surface Abs: 0.045 ul hCD14-FITC (ThermoFisher Cat #MHCD1401)+0.6 ul hCD19-ef450 (ThermoFisher Cat #48-0198-42)+1.5 ul hCD69-PE (cat #BD555531)+0.855 ul FACS buffer. Added 3 ul/well, spin1000 rpm for 1 min and mixed on shaker for 30 sec, put on ice for 30 mins. Stop stimulation after 30 minutes with 70 uL of prewarmed 1× fix/lysis buffer and use Feliex mate to resuspend (15 times, change tips for each plate) and incubate at 37C for 10 minutes.
Centrifuge at 2000 rpm for 5 minutes aspirate with HCS plate washer, mix on shaker for 30 sec and then wash with 70 uL in dPBS and pelleted 2×s (2000 rpm for 5 min) and 50 ul wash in FACS buffer pelleted 1×s(2000 rpm for 5 min). Mix on shaker for 30 sec. For Intracellular markers staining (MX-1): Add 50 ul of BD Perm buffer III and mix on shaker for 30 sec. Incubate on ice for 30 minutes (in the dark). Wash with 50 uL of FACS buffer 2× (spin @2300 rpm×5 min after perm) followed by mixing on shaker for 30 sec. Resuspended in 20 ul of FACS buffer containing MX1 antibody ( ) (4812)-Alexa 647: Novus Biologicals #NBP2-43704AF647) 20 ul FACS bf+0.8 ul hlgG+0.04 ul MX-1. Spin 1000 rpm for 1 min, mix on shaker for 30se and the samples were incubated at RT in the dark for 45 minutes followed by washing 2×FACS buffer (spin @2300 rpm×5 min after perm). Resuspend 20 ul (35 uL total per well) of FACS buffer and cover with foil and place in 4° C. to read the following day. Plates were read on iQuePlus. The results were loaded into toolset and IC50 curves are generated in curve master. The y-axis 100% is set to 1 uM of resiquimod.

SMILES | EC50 (human TLR7) [nM] | EC50 (CD69) [nM]
CCCCNc1nc(N)nc2cnn(Cc3cc(CO)ccc3OC)c12 [Compound 140, (3-((5-amino-7-(butylamino)-1H-pyrazolo[4,3-d]pyrimidin-1-yl)methyl)-4-methoxyphenyl)methanol] | 27.5 | 134
CCC[C@@H](CCO)Nc1nc(N)nc2cnn(Cc3cc(CN[C@@H]4COCC[C@H]4O)ccc3OC)c12 [Compound 180, (3R,4R)-3-[({3-[(5-amino-7-{[(3S)-1-hydroxyhexan-3-yl]amino}-1H-pyrazolo[4,3-d]pyrimidin-1-yl)methyl]-4-methoxyphenyl}methyl)-amino]oxan-4-ol] | 213 | –
CCCCNc1nc(N)nc2cnn(Cc3cc(CN4CC5CCCCCC54)ccc3OC)c12 (stereo not drawn) [Compound 106, 1-{[5-({8-azabicyclo-[5.2.0]nonan-8-yl}methyl)-2-methoxyphenyl]methyl}-N7-butyl-1H-pyrazolo[4,3-d]pyrimidine-5,7-diamine] | 502 | –
CCC[C@@H](CCO)Nc1nc(N)nc2cnn(Cc3cc(CN[C@H]4COCC[C@@H]4O)ccc3OC)c12 [Compound 182, (3S,4S)-3-[({3-[(5-amino-7-{[(3S)-1-hydroxyhexan-3-yl]amino}-1H-pyrazolo[4,3-d]pyrimidin-1-yl)methyl]-4-methoxyphenyl}methyl)-amino]oxan-4-ol] | 197 | –
CCCCNc1nc(N)nc2cnn(Cc3cc(CN4CCC4)ccc3OC)c12 [Compound 115, 1-({5-[(azetidin-1-yl)methyl]-2-methoxyphenyl}-methyl)-N7-butyl-1H-pyrazolo[4,3-d]pyrimidine-5,7-diamine] | 172 | –
CCC[C@@H](CCO)Nc1nc(N)nc2cnn(Cc3cc(CN[C@H]4CCOC[C@H]4O)ccc3OC)c12 [Compound 179, (3S,4S)-4-[({3-[(5-amino-7-{[(3S)-1-hydroxyhexan-3-yl]amino}-1H-pyrazolo[4,3-d]pyrimidin-1-yl)methyl]-4-methoxyphenyl}methyl)-amino]oxan-3-ol] | 405 | –
CCC[C@@H](CCO)Nc1nc(N)nc2cnn(Cc3cc(CN[C@@H]4COC[C@H]4O)ccc3OC)c12 [Compound 181, (3S,4R)-4-[({3-[(5-amino-7-{[(3S)-1-hydroxyhexan-3-yl]amino}-1H-pyrazolo[4,3-d]pyrimidin-1-yl)methyl]-4-methoxyphenyl}methyl)-amino]oxolan-3-ol] | 308 | –
CCCCNc1nc(N)nc2cnn(Cc3cc(CNC4CC5(CC5)C4)ccc3OC)c12 [Compound 111, N7-butyl-1-({2-methoxy-5-[({spiro[2.3]hexan-5-yl}amino)methyl]phenyl}methyl)-1H-pyrazolo[4,3-d]pyrimidine-5,7-diamine] | 358 | –
CCC[C@@H](CCO)Nc1nc(N)nc2cnn(Cc3cc(CN[C@H]4COC[C@@H]4O)ccc3OC)c12 [Compound 184] | 339 | –
CCC[C@@H](CCO)Nc1nc(N)nc2cnn(Cc3cc(CN[C@@H]4CCOC[C@H]4O)ccc3OC)c12 [Compound 183, (3S,4R)-4-[({3-[(5-amino-7-{[(3S)-1-hydroxyhexan-3-yl]amino}-1H-pyrazolo[4,3-d]pyrimidin-1-yl)methyl]-4-methoxyphenyl}methyl)-amino]oxan-3-ol] | 479 | –
CCCCNc1nc(N)nc2cnn(Cc3cc(CN4CC(O)C4)ccc3OC)c12 [Compound 108, 1-[(3-{[5-amino-7-(butyl-amino)-1H-pyrazolo[4,3-d]pyrimidin-1-yl]methyl}-4-methoxyphenyl)me-thyl]azetidin-3-ol] | 146 | –
CCCCNc1nc(N)nc2cnn(Cc3cc(CN4CCN(C)CC4)ccc3OC)c12 [Compound 109, N7-butyl-1-({2-methoxy-5-[(4-methylpiperazin-1-yl)methyl]phenyl}methyl)-1H-pyrazolo[4,3-d] pyrimidine-5,7-diamine] | 51.3 | –
CCCCNc1nc(N)nc2cnn(Cc3cc(CN4CC5CCCC(C5)C4)ccc3OC)c12 [Compound 104, 1-{[5-({3-azabicyclo-[3.3.1]nonan-3-yl}methyl)-2-methoxyphenyl]methyl}-N7-butyl-1H-pyrazolo[4,3-d]pyrimidine-5,7-diamine] | 630 | –
CCCCNc1nc(N)nc2cnn(Cc3cc(CNC(C)(C)C)ccc3OC)c12 [Compound 112] | 249 | –
CCCCNc1nc(N)nc2cnn(Cc3cc(CNC4CCOCC4)ccc3OC)c12 [Compound 101, N7-butyl-1-[(2-methoxy-5-{[(oxan-4-yl)amino]-methyl}phenyl)methyl]-1H-pyrazolo[4,3-d]pyrimidine-5,7-diamine] | 352 | –
CCCCNc1nc(N)nc2cnn(Cc3cc(CN4CCC5CCC(C5)C4)ccc3OC)c12 (stereo not drawn) [Compound 102, 1-{[5-({3-azabicyclo-[4.2.1]nonan-3-yl}methyl)-2-methoxyphenyl]methyl}-N7-butyl-1H-pyrazolo[4,3-d]pyrimidine-5,7-diamine] | 658 | –
CCCCNc1nc(N)nc2cnn(Cc3cc(CN4CCC5CCC(C5)C4)ccc3OC)c12 (stereo not drawn) [Compound 103, 1-{[5-({3-azabicyclo-[4.2.1]nonan-3-yl}methyl)-2-methoxyphenyl]methyl}-N7-butyl-1H-pyrazolo[4,3-d]pyrimidine-5,7-diamine] | 193 | –
CCCCNc1nc(N)nc2cnn(Cc3cc(CN4CC5CCCC(C4)C5O)ccc3OC)c12 (stereo not drawn) [Compound 107, 3-[(3-{[5-amino-7-(butyl-amino)-1H-pyrazolo[4,3-d]pyrimidin-1-yl]methyl}-4-methoxyphenyl)methyl]-3-aza bicyclo[3.3.1]nonan-9-ol] | 750 | –
CCCCNc1nc(N)nc2cnn(Cc3cc(CNC45CC(C4)C5)ccc3OC)c12 [Compound 110, 1-({5-[({bicyclo[1.1.1]-pentan-1-yl}amino)methyl]-2-methoxyphenyl}-methyl)-N7-butyl-1H-pyrazolo[4,3-d]pyrimidine-5,7-diamine] | 447 | –
CCCCNc1nc(N)nc2cnn(Cc3cc(CN4CC5CCS(=O)(=O)C5C4)ccc3OC)c12 (stereo not drawn) [Compound 113, 5-[(3-{[5-amino-7-(butyl-amino)-1H-pyrazolo[4,3-d]pyrimidin-1-yl]methyl}-4-methoxyphenyl)methyl]-hexahydro-2H-1λ6-thieno-[2,3-c]pyrrole-1,1-dione] | 493 | –
